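Briefly, cells in 96-well plates were exposed to five compound concentrations for 48 h, and endpoints were estimated by linear interpolation. At the GI50, growth is halved.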 Calls of active or inactive are those of the source. No stated cut-off is given here; in the data, active = GI50 up to about 1.1 µM and inactive = higher.
What was measured:
Experiment in all cases: inhibition of tumour cell growth, NCI panel, 48 h
[1] = system: A549
[2] = system: ACHN
[3] = system: CCRF-CEM
[4] = system: HL-60
[5] = system: HT-29
[6] = system: KM12
[7] = system: LOX IMVI
[8] = system: NCI-H226
[9] = system: NCI-H23
[10] = system: OVCAR-5
[11] = system: SF-295
[12] = system: SK-MEL-2
[13] = system: SNB-78
[14] = system: SW-620
[15] = system: TK-10
[16] = system: UACC-257
[17] = system: SK-MEL-5
[18] = system: DU-145
[19] = system: MDA-N

Measured: GI50

CCCCCCCCCC(=O)CC(=O)c1c(O)cccc1O
inactive: [1] 28.8 µM | [2] 27.4 µM | [3] 27.4 µM | [4] 21.4 µM | [5] 27.3 µM | [6] 35.1 µM | [7] 21.3 µM | [8] 25.9 µM | [9] 30.5 µM | [10] 22.9 µM | [11] 34.1 µM | [12] 30.6 µM | [13] 40 µM | [14] 28.8 µM | [15] 41.8 µM | [16] 38.2 µM

CN(N=O)C(=O)NC(CCCCNC(=O)OCc1ccccc1)C(=O)OCc1ccccc1 (stereo not drawn)
inactive: [1] 83 µM | [2] 17.7 µM | [3] 25 µM | [4] 25.2 µM | [5] 66.4 µM | [6] 48.2 µM | [7] 17.4 µM | [8] 42.9 µM | [9] 20.7 µM | [10] > 100 µM | [11] 32.4 µM | [12] 30.1 µM | [17] 20.4 µM | [13] 26.7 µM | [14] 27.6 µM | [15] 33.4 µM | [16] 16.5 µM

O=C(/C=C/c1ccc(OCC(=O)N2CCN(c3ccccc3)CC2)cc1)c1ccccc1
inactive: [1] 44.4 µM | [2] 19.7 µM | [3] 2.84 µM | [4] 4.95 µM | [5] 4.33 µM | [6] 4.52 µM | [7] 3.68 µM | [8] 16.9 µM | [9] 17.8 µM | [10] 48.8 µM | [11] 23.3 µM | [12] > 26.5 µM | [17] 7.57 µM | [13] > 44.5 µM | [14] 3.13 µM | [15] 45.7 µM | [16] 17.1 µM

Nc1nccc2c1ncn2C1C=C(CO)C(O)C1O (stereo not drawn)
inactive: [1] 98.4 µM | [2] 20.6 µM | [3] 2.76 µM | [18] > 100 µM | [4] 1.82 µM | [5] 6.37 µM | [6] 1.6 µM | [7] 27.5 µM | [19] 2.99 µM | [8] 49.1 µM | [9] 68.7 µM | [10] 23.4 µM | [11] > 100 µM | [12] 91.6 µM | [17] 356 µM | [13] > 100 µM | [14] 1.75 µM | [15] > 95.5 µM | [16] 18.4 µM

Oc1ccc(Br)cc1/C=N/c1ccc(/N=C/c2cc(Br)ccc2O)cc1
inactive: [1] > 100 µM | [2] > 100 µM | [3] > 100 µM | [4] > 100 µM | [5] > 100 µM | [6] > 100 µM | [7] > 100 µM | [8] > 100 µM | [9] > 100 µM | [10] > 100 µM | [11] > 100 µM | [12] > 100 µM | [17] > 100 µM | [13] > 100 µM | [14] > 100 µM | [15] > 100 µM | [16] > 100 µM

CCOC(=O)[C@@]1(C)C=C2O[C@@H]3OC4(CCCCC4)O[C@@H]3C2=C2C(O)=CC=C(O)[C@]21C(=O)OC
inactive: [1] > 68.1 µM | [2] > 68.1 µM | [3] > 68.1 µM | [4] 33 µM | [5] > 68.1 µM | [6] > 68.1 µM | [7] > 68.1 µM | [8] > 68.1 µM | [9] > 68.1 µM | [10] > 68.1 µM | [11] > 68.1 µM | [12] > 68.1 µM | [17] > 68.1 µM | [13] > 68.1 µM | [14] > 68.1 µM | [15] > 68.1 µM | [16] > 68.1 µM

COc1ccccc1C1C(Cl)C(=O)N1NC(=O)Cc1ccccc1 (stereo not drawn)
inactive: [1] > 100 µM | [2] > 100 µM | [3] > 100 µM | [4] 34.8 µM | [5] > 100 µM | [6] > 100 µM | [7] 50.5 µM | [8] 48.5 µM | [9] > 100 µM | [10] > 100 µM | [11] > 100 µM | [12] 53.7 µM | [17] 61.9 µM | [13] > 100 µM | [14] 52.4 µM | [15] > 100 µM | [16] > 100 µM

CC1=C(/C=C/C(C)=C/C2CC(N(C)C)=CC(=O)O2)C(C)(C)CCC1 (stereo not drawn)
inactive: [1] 9.75 µM | [2] 12.1 µM | [3] 3.46 µM | [4] 1.44 µM | [5] 13.2 µM | [6] 15.6 µM | [7] 15.2 µM | [8] 11.9 µM | [9] 13.5 µM | [10] 11.6 µM | [11] 13 µM | [12] 13.2 µM | [17] 5.45 µM | [13] 19.5 µM | [14] 16.2 µM | [15] 14.1 µM | [16] 11.9 µM

COC(=O)C(CCC1(C)OCCO1)=[N+]=[N-]
inactive: [1] > 100 µM | [2] > 100 µM | [3] > 100 µM | [4] > 100 µM | [5] > 100 µM | [6] > 100 µM | [7] > 100 µM | [8] > 100 µM | [9] > 100 µM | [10] > 100 µM | [11] > 100 µM | [12] > 100 µM | [17] > 100 µM | [13] > 100 µM | [14] > 100 µM | [15] > 100 µM | [16] > 100 µM

Nc1ccc(/N=N/c2ccc(-c3ccc(/N=N/c4c(S(=O)(=O)O)cc5cc(S(=O)(=O)O)c(/N=N/c6ccc([N+](=O)[O-])cc6)c(N)c5c4O)cc3)cc2)c2cc(S(=O)(=O)O)ccc12
inactive: [1] > 100 µM | [2] > 100 µM | [3] > 100 µM | [4] > 100 µM | [5] > 100 µM | [6] > 100 µM | [7] > 100 µM | [8] > 100 µM | [9] > 100 µM | [10] > 100 µM | [11] 84.5 µM | [12] > 100 µM | [17] > 100 µM | [13] > 100 µM | [14] > 100 µM | [15] > 100 µM | [16] > 100 µM

C/C=C/C[C@@H](C)[C@@H](O)[C@H]1C(=O)N[C@@H](CC)C(=O)N(C)CC(=O)N(C)[C@@H](CC(C)C)C(=O)N[C@@H](C(C)C)C(=O)N(C)[C@@H](CC(C)C)C(=O)N[C@@H](C)C(=O)N[C@H](C)C(=O)N(C)[C@@H](CC(C)C)C(=O)N(C)[C@@H](CC(C)C)C(=O)N(C)[C@@H](C(C)C)C(=O)N1C [CYCLOSPORINE]
inactive: [1] 5.25 µM | [2] 5.5 µM | [3] 3.08 µM | [4] 2.25 µM | [5] 2.29 µM | [6] 5.94 µM | [7] 2.43 µM | [8] 4.39 µM | [9] 5.37 µM | [10] 6.93 µM | [11] 2.79 µM | [12] 3.17 µM | [17] 3.78 µM | [13] 4.98 µM | [14] 11.2 µM | [15] 7.82 µM | [16] 2.05 µM

Source: ChEMBL document CHEMBL1201862, “PubChem BioAssay data set” (2004)
